Measurements as given in patent US20230279233A1, “ATROROSINS AS FOOD COLORS” (Chromologics ApS, priority 2020, published 2023).
Several values for one entry are separate records, joined by “and”; a condition that tells them apart may be missing. Equal entries are not always repeated. Entries after “also recorded” stand apart in the source; their conditions may differ. Where two headings read alike, the source gives them in different places.

How the values were obtained:
[1] = Temperature stability at 60° C. and 80° C. in McIlvaine buffer pH 5, absorption maxima
Protocol: Buffer and atrorosin was mixed for 5 minutes before the solutions were subjected heating in an incubator at 60° C. and 80° C. to colorimetric analysis using spectrophotometer. The absorption maxima at 425 nm and 490 nm were determined in a microtiter plate with a 0.45 cm cell length with buffer as blank. In comparison to the data in Table 3, the absorption spectrum of betanin is determined as above. […] In comparison to Table 5, the absorption spectrum of betanin is determined as above.

DPPH antioxidant assay = details: 0 μM to 45 μM, 30 minutes, absorbance 517 nm, compared to Trolox (FIG. 3)
Protocol: To assess antioxidant activity of Atrorosin-E, the common DPPH (2,2 Diphenyl-1-picrylhydrazyl) assay was used. A working solution of DPPH was made with a concentration of 220 μg/ml in ethanol. 1 g of the resulting powder from Example 2 was used to make a dilution row of atrorosin-E from 0 μM to 45 μM. […] of each sample was reacted to 1000 μL of DPPH for 30 minutes in the dark before absorbance was measured.
Antioxidant activity was determined by calculating the inhibition of emission of DPPH by measuring absorbance of DPPH at 517 nm before and after incubation with reactants. As Atrorosins have background emission at 517, the before sample was measured seconds after addition of atrorosins rather than before. Antioxidant activity of Atrorosin-E was compared to the standard Trolox (FIG. 3).

TA 98 = assay: mini-Ames (AMES MPF) genotoxicity; assay type: cell-based; details: for genotoxic effects (in words): mini-Ames study
Protocol: Resulting powder from example 2 was sent to Cyprotox to asses for genotoxicity in a mini-Ames experiment. 43.2 mg of atrorosin was sent to Cyprotox. Mini-Ames test were conducted under the guidelines of OECD.
In comparison to the atrorosin tested above, similar 46.4 mg of carminic acid was also sent to Cyprotox to assess for genotoxicity.

[2] = Pharmacokinetic profile in rats, IV and PO; assay type: in vivo; details: for Cmax: read-out: C0/Cmax
Protocol: Resulting powder from example 2 was sent to Evotec to asses for the pharmacokinetic profile of atrorosin. 6 rats were used, 3 rats for IV injection of atrorosin and 3 rats for PO. The rats were injected or given through mouth gauge 2 mg/kg, and blood samples were taken at regular intervals.
In comparison to example 10, similar carminic acid was also sent to Evotec to assess the pharmacokinetic profile.

[3] = pH stability in McIlvaine buffer pH 2.2-7.2, absorption maxima by spectrophotometer; assay type: physicochemical
[4] = rat, IV 2 mg/kg, individual rats 1-3, 2 mg/kg
[5] = rat, PO 2 mg/kg, individual rats 4-6, 2 mg/kg

SMILES: CCCCCCCC(=O)C1=C2C=C3C=C(/C=C\C(=O)O)N([C@@H](CCC(=O)O)C(=O)O)C=C3C(=O)C2(C)OC1=O (stereo partly shown) [Atrorosin-E]
- Absorption at 425 nm ([1]; 60° C., pH 5, 1 H): 2.01
- Absorption at 490 nm ([1]; 60° C., pH 5, 1 H): 3.53
- Absorption at 425 nm ([1]; 60° C., pH 5, 2 H): 1.98
- Absorption at 490 nm ([1]; 60° C., pH 5, 2 H): 3.42
- Absorption at 425 nm ([1]; 60° C., pH 5, 3 H): 1.78
- Absorption at 490 nm ([1]; 60° C., pH 5, 3 H): 3.11
- Absorption at 425 nm ([1]; 60° C., pH 5, 24 H): 0.78
- Absorption at 490 nm ([1]; 60° C., pH 5, 24 H): 1.31
- Absorption at 425 nm ([1]; 60° C., pH 5, T0: Start): 2.03
- Absorption at 490 nm ([1]; 60° C., pH 5, T0: Start): 3.55
- Absorption at 425 nm ([1]; 80° C., pH 5, 1 H): 1.66
- Absorption at 490 nm ([1]; 80° C., pH 5, 1 H): 2.86
- Absorption at 425 nm ([1]; 80° C., pH 5, 2 H): 1.23
- Absorption at 490 nm ([1]; 80° C., pH 5, 2 H): 2.13
- Absorption at 425 nm ([1]; 80° C., pH 5, 3 H): 0.99
- Absorption at 490 nm ([1]; 80° C., pH 5, 3 H): 1.71
- Absorption at 425 nm ([1]; 80° C., pH 5, 15 min): 2.00
- Absorption at 490 nm ([1]; 80° C., pH 5, 15 min): 3.38
- Absorption at 425 nm ([1]; 80° C., pH 5, T0: Start): 2.04
- Absorption at 490 nm ([1]; 80° C., pH 5, T0: Start): 3.48
- Antioxidant activity (inhibition of DPPH, in words) (DPPH antioxidant assay): far more potent antioxidant than the control antioxidant Trolox
- Fold increase (over baseline) (TA 98; TA 98 +S9, 62.5 μg/ml): 0.55
- mean # pos. Wells (TA 98; TA 98 +S9, 62.5 μg/ml): 1.33
- Fold increase (over baseline) (TA 98; TA 98 +S9, 125 μg/ml): 0.28
- mean # pos. Wells (TA 98; TA 98 +S9, 125 μg/ml): 0.67
- Fold increase (over baseline) (TA 98; TA 98 +S9, 250 μg/ml): 0.42
- mean # pos. Wells (TA 98; TA 98 +S9, 250 μg/ml): 1.00
- Fold increase (over baseline) (TA 98; TA 98 +S9, 500 μg/ml): 0.28
- mean # pos. Wells (TA 98; TA 98 +S9, 500 μg/ml): 0.67
- Fold increase (over baseline) (TA 98; TA 98 +S9, 1000 μg/ml): 0.69
- mean # pos. Wells (TA 98; TA 98 +S9, 1000 μg/ml): 1.67
- Fold increase (over baseline) (TA 98; TA 98 +S9, 2000 μg/ml): 0.00
- mean # pos. Wells (TA 98; TA 98 +S9, 2000 μg/ml): 0.00
- Fold increase (over baseline) (TA 98; TA 98 −S9, 62.5 μg/ml): 0.00
- mean # pos. Wells (TA 98; TA 98 −S9, 62.5 μg/ml): 0.00
- Fold increase (over baseline) (TA 98; TA 98 −S9, 125 μg/ml): 0.76
- mean # pos. Wells (TA 98; TA 98 −S9, 125 μg/ml): 1.00
- Fold increase (over baseline) (TA 98; TA 98 −S9, 250 μg/ml): 1.52
- mean # pos. Wells (TA 98; TA 98 −S9, 250 μg/ml): 2.00
- Fold increase (over baseline) (TA 98; TA 98 −S9, 500 μg/ml): 0.76
- mean # pos. Wells (TA 98; TA 98 −S9, 500 μg/ml): 1.00
- Fold increase (over baseline) (TA 98; TA 98 −S9, 1000 μg/ml): 0.51
- mean # pos. Wells (TA 98; TA 98 −S9, 1000 μg/ml): 0.67
- Fold increase (over baseline) (TA 98; TA 98 −S9, 2000 μg/ml): 0.51
- mean # pos. Wells (TA 98; TA 98 −S9, 2000 μg/ml): 0.67
- genotoxic effects (in words) (TA 98): do not exert any genotoxic effects
- genotoxic effects (in words) (TA 98; listed as atrorosin): not genotoxic; also recorded: neither genotoxic
- C0/Cmax ([2]; rat, IV 2 mg/kg, Mean): 10098 ng/mL
- CL/CL_F (plasma clearance) ([2]; rat, IV 2 mg/kg, Mean): 16 ± 2 mL/min/kg
- Clast ([2]; rat, IV 2 mg/kg, Mean): 3.15 ng/mL
- MRT ([2]; rat, IV 2 mg/kg, Mean): 0.5 h
- Vdss ([2]; rat, IV 2 mg/kg, Mean): 0.5 L/kg
- t½ ([2]; rat, IV 2 mg/kg, Mean): 1.3 ± 0.6 h
- Cmax ([2]; rat, IV 2 mg/kg, Mean): 18.6 µM
- Vdss ([2]; rat, IV 2 mg/kg, individual rats 1-3): 0.5 L/kg
- AUC0-t [2, 4]: 2330 ng · hr/mL and 1818 ng · hr/mL and 2055 ng · hr/mL and 4297 nM · hr and 3352 nM · hr and 3790 nM · hr
- AUCinf [2, 4]: 2336 ng · hr/mL and 1822 ng · hr/mL and 2063 ng · hr/mL and 4308 nM · hr and 3360 nM · hr and 3804 nM · hr
- C0/Cmax [2, 4]: 9019 ng/mL and 10685 ng/mL and 10589 ng/mL
- CL/CL_F [2, 4]: 14 mL/min/kg and 18 mL/min/kg and 16 mL/min/kg
- Clast [2, 4]: 3.26 ng/mL and 3.45 ng/mL and 2.73 ng/mL
- MRT [2, 4]: 0.5 h (2×) and 0.4 h
- Tlast [2, 4]: 8 h (2×) and 6 h
- t½ [2, 4]: 1.3 h and 0.8 h and 1.9 h
- Cmax [2, 4]: 16.6 µM and 19.7 µM and 19.5 µM
- C0/Cmax ([2]; rat, PO 2 mg/kg, Mean): 4.46 ng/mL
- Clast ([2]; rat, PO 2 mg/kg, Mean): 3.28 ng/mL
- Bioavailability (%) Using AUC0-t ([2]; rat, PO 2 mg/kg, Mean, 2 mg/kg): 0.3%
- Bioavailability (%) Using AUC0-t ([2]; rat, PO 2 mg/kg, Mean, listed as atrorosin, 2 mg/kg): 0.3%
- Cmax ([2]; rat, PO 2 mg/kg, Mean): 0.0082 µM
- Tmax ([2]; rat, PO 2 mg/kg, Median): 1 h
- Tlast ([2]; rat, PO 2 mg/kg, individual rats 4-6): 2 h
- AUC0-t [2, 5]: 6.35 ng · hr/mL and 7.6 ng · hr/mL and 5.76 ng · hr/mL and 11.7 nM · hr and 13.9 nM · hr and 10.6 nM · hr
- Bioavailability (%) Using AUC0-t [2, 5]: 0.3% (2×) and 0.4%
- C0/Cmax [2, 5]: 4.35 ng/mL and 5.35 ng/mL and 3.68 ng/mL
- Clast [2, 5]: 2.6 ng/mL and 2.88 ng/mL
- Tmax [2, 5]: 2 h and 1 h and 0.25 h
- Cmax [2, 5]: 0.00803 µM and 0.0099 µM and 0.00679 µM
- Clast ([2]; rat, in vivo, po, 2 mg/kg): 4.35 ng/mL
- safety when ingested / adverse effects on rats (in words) ([2]; rats, 2 mg/kg IV or PO, 2 mg/kg): safe when ingested; also recorded: nor does it have any adverse effects on rats
- pH stability (in words) ([3]; compared with carminic acid, Tables 1 and 2): superior pH stability at low pH
- Absorption at 425 nm ([3]; pH 2.2): 0.63
- Absorption at 490 nm ([3]; pH 2.2): 3.30
- Absorption at 425 nm ([3]; pH 3.5): 0.73
- Absorption at 490 nm ([3]; pH 3.5): 3.92
- Absorption at 425 nm ([3]; pH 5): 0.75
- Absorption at 490 nm ([3]; pH 5): 3.94
- Absorption at 425 nm ([3]; pH 7.2): 0.73
- Absorption at 490 nm ([3]; pH 7.2): 3.91
